Laboratory results from patent US7655598B2, “Herbicide composition” (Sumitomo Chemical Company, Limited, priority 2001, dated 2010).

System: sickle pod
Experiment: Test Example 1: foliar spray herbicide effect on sickle pod in greenhouse pots
Assay type: in vivo, sickle pod (Cassia obtusifolia)
Details: evaluated 5 days after treatment, scale 0-10
Procedure: Evaluation of phytotoxicity against a crop was shown by “no” when almost no phytotoxicity was observed, “low” when a low level phytotoxicity was observed, “medium” when a medium level phytotoxicity was observed and “high” when a high level phytotoxicity was observed.
A plastic pot of 11 cm in diameter and 8 cm in depth was filled with field soil. A seed of sickle pod was sown and grown in a greenhouse for 28 days.
An emulsion of Compound A-1 was prepared by sufficiently mixing 5 parts of Compound A-1, 6 parts of Sorpol 3005X (surfactant, produced by Toho Chemical) and 89 parts of xylene.
Each of • single use of an emulsion of Compound A-1, • single use of an emulsion of Oxyfluorfen (commercial name: Goal, produced by Rohm & Hass Co., containing 23% of Oxyfluorfen), and • a mixed composition of an emulsion of Compound A-1 and an emulsion of Oxyfluorfen, • were diluted with water containing 1% Agri-dex (produced by Helena). Respective dilutions were uniformly sprayed from upper side onto foliages of sickle pod grown as described above with a small sprayer such that the amounts of the active ingredients were the amounts shown in Table 4.
After the treatment, they were raised in a greenhouse for 5 days and the effect against weeds was evaluated.

CCOc1cc(Oc2ccc(C(F)(F)F)cc2Cl)ccc1[N+](=O)[O-] [Oxyfluorfen, 2-chloro-1-(3-ethoxy-4-nitrophenoxy)-4-(trifluoromethyl)benzen]
Herbicide Effect sickle pod (500 g/ha active ingredient): 3
Herbicide Effect sickle pod (2000 g/ha active ingredient): 3
